Results from PubChem BioAssay (NCI).
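Tested at 5 concentrations; 48 h exposure; 96-well plates; endpoints linearly interpolated, else capped at highest concentration. TGI: total growth inhibition.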

Key:
Test in all cases: inhibition of tumour cell growth, NCI panel, 48 h
A498 renal = tested on: A498 renal
SN12C renal = tested on: SN12C renal
U251 CNS = tested on: U251 CNS
TK-10 renal = tested on: TK-10 renal
UO-31 renal = tested on: UO-31 renal
NCI-H522 lung = tested on: NCI-H522 lung
LOX IMVI melanoma = tested on: LOX IMVI melanoma
SF-295 CNS = tested on: SF-295 CNS
HCT-116 colon = tested on: HCT-116 colon
OVCAR-3 ovarian = tested on: OVCAR-3 ovarian
SF-539 CNS = tested on: SF-539 CNS
UACC-257 melanoma = tested on: UACC-257 melanoma
A549 NSCLC = tested on: A549 NSCLC
NCI-H23 lung = tested on: NCI-H23 lung
CCRF-CEM leukemia = tested on: CCRF-CEM leukemia
SK-OV-3 ovarian = tested on: SK-OV-3 ovarian
PC-3 prostate = tested on: PC-3 prostate
NCI/ADR-RES ovarian = tested on: NCI/ADR-RES ovarian
MDA-MB-231 breast = tested on: MDA-MB-231 breast
BT-549 breast = tested on: BT-549 breast

## [N-]=[N+]=C1C(=O)C2CC3CC1CC2C3 (stereo not given)
A498 renal
  TGI: > 100 µM
SN12C renal
  TGI: > 100 µM
U251 CNS
  TGI: > 100 µM
TK-10 renal
  TGI: > 100 µM
UO-31 renal
  TGI: > 100 µM
NCI-H522 lung
  TGI: > 100 µM
LOX IMVI melanoma
  TGI: > 100 µM
SF-295 CNS
  TGI: > 100 µM
HCT-116 colon
  TGI: > 100 µM
OVCAR-3 ovarian
  TGI: > 100 µM
SF-539 CNS
  TGI: > 100 µM
UACC-257 melanoma
  TGI: > 100 µM
A549 NSCLC
  TGI: > 100 µM
NCI-H23 lung
  TGI: > 100 µM
CCRF-CEM leukemia
  TGI: > 100 µM
SK-OV-3 ovarian
  TGI: > 100 µM

## C[C@H](CCC(=O)O)[C@H]1CC[C@H]2[C@@H]3[C@@H](O)C[C@@H]4C[C@H](O)CC[C@]4(C)[C@H]3C[C@H](O)[C@]12C
PC-3 prostate
  TGI: > 100 µM
A498 renal
  TGI: > 100 µM
SN12C renal
  TGI: > 100 µM
U251 CNS
  TGI: > 100 µM
TK-10 renal
  TGI: > 100 µM
NCI/ADR-RES ovarian
  TGI: > 100 µM
NCI-H522 lung
  TGI: > 100 µM
LOX IMVI melanoma
  TGI: > 100 µM
HCT-116 colon
  TGI: > 100 µM
MDA-MB-231 breast
  TGI: > 100 µM
SF-539 CNS
  TGI: > 100 µM
UACC-257 melanoma
  TGI: > 100 µM
A549 NSCLC
  TGI: > 100 µM
NCI-H23 lung
  TGI: > 100 µM
CCRF-CEM leukemia
  TGI: > 100 µM

## CO/S(=N/S(=O)(=O)c1ccccc1)c1ccccc1[N+](=O)[O-] (stereo not given)
SN12C renal
  TGI: > 100 µM
U251 CNS
  TGI: > 100 µM
UO-31 renal
  TGI: > 100 µM
NCI-H522 lung
  TGI: > 100 µM
LOX IMVI melanoma
  TGI: > 100 µM
SF-295 CNS
  TGI: > 100 µM
OVCAR-3 ovarian
  TGI: > 100 µM
SF-539 CNS
  TGI: > 100 µM
UACC-257 melanoma
  TGI: > 100 µM
A549 NSCLC
  TGI: > 100 µM
NCI-H23 lung
  TGI: > 100 µM
CCRF-CEM leukemia
  TGI: > 100 µM
SK-OV-3 ovarian
  TGI: > 100 µM

## O=C(CSc1nc2ccc(I)cc2c(=O)n1Cc1ccccc1)NNC(=S)Nc1ccccc1
PC-3 prostate
  TGI: > 100 µM
A498 renal
  TGI: > 100 µM
SN12C renal
  TGI: > 100 µM
U251 CNS
  TGI: > 100 µM
TK-10 renal
  TGI: > 100 µM
NCI/ADR-RES ovarian
  TGI: > 100 µM
NCI-H522 lung
  TGI: > 100 µM
LOX IMVI melanoma
  TGI: > 100 µM
SF-295 CNS
  TGI: > 100 µM
HCT-116 colon
  TGI: > 100 µM
OVCAR-3 ovarian
  TGI: > 100 µM
UACC-257 melanoma
  TGI: 98.7 µM
A549 NSCLC
  TGI: > 100 µM
BT-549 breast
  TGI: > 100 µM
NCI-H23 lung
  TGI: > 100 µM
CCRF-CEM leukemia
  TGI: > 100 µM
SK-OV-3 ovarian
  TGI: > 100 µM

## N=C1c2ccccc2C(=O)c2c(NCCNCCO)ccc(O)c21
A498 renal
  TGI: 33.8 µM
SN12C renal
  TGI: 31.7 µM
U251 CNS
  TGI: 18.9 µM
TK-10 renal
  TGI: > 62.3 µM
UO-31 renal
  TGI: 32.7 µM
NCI-H522 lung
  TGI: 13.3 µM
LOX IMVI melanoma
  TGI: 15.6 µM
SF-295 CNS
  TGI: > 40.5 µM
HCT-116 colon
  TGI: 15 µM
OVCAR-3 ovarian
  TGI: 52.7 µM
SF-539 CNS
  TGI: 16.3 µM
UACC-257 melanoma
  TGI: > 51.6 µM
A549 NSCLC
  TGI: 22.6 µM
NCI-H23 lung
  TGI: 25.7 µM
CCRF-CEM leukemia
  TGI: 53.9 µM
SK-OV-3 ovarian
  TGI: 50.2 µM

## CCOC(=O)C(=CNc1ccc(S(N)(=O)=O)cc1)C(=O)OCC
PC-3 prostate
  TGI: > 100 µM
A498 renal
  TGI: > 100 µM
SN12C renal
  TGI: > 100 µM
U251 CNS
  TGI: > 100 µM
TK-10 renal
  TGI: > 100 µM
UO-31 renal
  TGI: > 100 µM
NCI/ADR-RES ovarian
  TGI: > 100 µM
NCI-H522 lung
  TGI: > 100 µM
LOX IMVI melanoma
  TGI: > 100 µM
SF-295 CNS
  TGI: > 100 µM
HCT-116 colon
  TGI: > 100 µM
OVCAR-3 ovarian
  TGI: > 100 µM
MDA-MB-231 breast
  TGI: > 100 µM
SF-539 CNS
  TGI: > 100 µM
UACC-257 melanoma
  TGI: > 100 µM
A549 NSCLC
  TGI: > 100 µM
NCI-H23 lung
  TGI: > 100 µM
CCRF-CEM leukemia
  TGI: > 100 µM
SK-OV-3 ovarian
  TGI: > 100 µM

## O=CC1=CCCN(CCc2c[nH]c3ccccc23)C1
SN12C renal
  TGI: 109 µM
U251 CNS
  TGI: 105 µM
TK-10 renal
  TGI: 140 µM
NCI-H522 lung
  TGI: 139 µM
LOX IMVI melanoma
  TGI: 12.2 µM
SF-295 CNS
  TGI: 112 µM
HCT-116 colon
  TGI: 80.4 µM
OVCAR-3 ovarian
  TGI: 95.9 µM
SF-539 CNS
  TGI: 108 µM
UACC-257 melanoma
  TGI: 132 µM
A549 NSCLC
  TGI: > 393 µM
NCI-H23 lung
  TGI: 101 µM
CCRF-CEM leukemia
  TGI: > 393 µM
SK-OV-3 ovarian
  TGI: 224 µM
